Data: BindingDB's records for patent US11964990 (Abbvie, 2024)

Tests used:
[1] = biological target: Apoptosis regulator Bcl-2 (Homo sapiens, UniProt P10415); assay: Time Resolved-Fluorescence Resonance Energy Transfer (TR-FRET) Assay
Method: (§1) [Bcl-2 protein or Bcl-xL protein], [Probe], [Antibody],Protein Probe nM nM Antibody nMGST- F-Bak 1 100 Tb-anti- 1Bcl- Acetyl-(SEQ GST 2 ID NO: 3)-NH2The samples were then mixed on a shaker for 1 minute and equilibrated for an additional 3 hours at room temperature. For each assay plate, a probe/antibody and protein/antibody/probe mixture were included as a negative and a positive control, respectively. Fluorescence was measured on the Envision (Perkin Elmer) using a 340/35 nm excitation filter and 520/525 (F-Bak) and 495/510 nm (Tb-labeled anti-GST antibody) emission filters. Inhibition constants (Ki) were determined using Wang's equation (Wang FEBS Lett. 1995, 360, 111-114). The TR-FRET assay can be performed in the presence of varying concentrations of human serum (HS) to determine apparent half maximal inhibitory concentration (IC50) after HS protein binding.

Bcl-2-like protein 1 = Bcl-2-like protein 1 (Homo sapiens, UniProt Q07817); assay: as above
Chain of Bcl-2-like protein 1 (Q07817 whole entry): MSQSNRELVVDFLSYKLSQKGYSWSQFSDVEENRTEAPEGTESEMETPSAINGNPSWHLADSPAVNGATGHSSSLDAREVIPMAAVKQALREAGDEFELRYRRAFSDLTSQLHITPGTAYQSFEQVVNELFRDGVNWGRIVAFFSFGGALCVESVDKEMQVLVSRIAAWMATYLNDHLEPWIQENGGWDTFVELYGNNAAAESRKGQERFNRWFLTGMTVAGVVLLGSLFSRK
Method: as §1

Chain of Apoptosis regulator Bcl-2 (P10415 whole entry): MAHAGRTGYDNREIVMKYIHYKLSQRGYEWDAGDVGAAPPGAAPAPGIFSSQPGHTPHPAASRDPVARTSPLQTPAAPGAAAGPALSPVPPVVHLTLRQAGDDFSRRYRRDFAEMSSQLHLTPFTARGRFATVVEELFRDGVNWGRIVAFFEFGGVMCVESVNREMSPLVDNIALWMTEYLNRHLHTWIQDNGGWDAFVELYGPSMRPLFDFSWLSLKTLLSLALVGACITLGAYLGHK

## C[C@@H]1CC[C@H](CNc2ccc(S(=O)(=O)NC(=O)c3ccc(N4CCN5CC6=C(c7ccc(Cl)cc7)CC(C)(C)C[C@H]6OCCCOC[C@@H]5C4)cc3N3CCCOc4nc5[nH]ccc5cc43)cc2[N+](=O)[O-])OC1 [US11964990, Example 21]
[1]
  Ki: 0.521 nM
Bcl-2-like protein 1
  Ki: 58.9 nM
